According to article PMC5063900, “A phase 1 study of the safety, tolerability, pharmacokinetics, and pharmacodynamics of TAK-063, a selective PDE10A inhibitor” (Psychopharmacology, 2016):

Assay: CNS Vital Signs (CNSVS) computerized cognition battery
Format: in vivo, human
Conditions: for Cognitive flexibility domain score, Difference (TAK-063 LS mean - placebo LS mean, change from baseline) / Composite memory domain score, Difference (TAK-063 LS mean - placebo LS mean, change from baseline) / Executive functioning domain score, Difference (TAK-063 LS mean - placebo LS mean, change from baseline) / Processing speed domain score, Difference (TAK-063 LS mean - placebo LS mean, change from baseline) / Psychomotor speed domain score, Difference (TAK-063 LS mean - placebo LS mean, change from baseline) / Reaction time domain score, Difference (TAK-063 LS mean - placebo LS mean, change from baseline) / Reasoning domain score, Difference (TAK-063 LS mean - placebo LS mean, change from baseline) / Sustained attention domain score, Difference (TAK-063 LS mean - placebo LS mean, change from baseline) / Verbal memory domain score, Difference (TAK-063 LS mean - placebo LS mean, change from baseline) / Visual memory domain score, Difference (TAK-063 LS mean - placebo LS mean, change from baseline) / Working memory domain score, Difference (TAK-063 LS mean - placebo LS mean, change from baseline): 6 h postdose, fasting
Description: Cognitive flexibility, attention, executive function, memory, reasoning, motor control, psychomotor speed, reaction time, and information processing speed were assessed predose and at 2 and 6 h following TAK-063 treatment using the CNSVS computerized cognition battery. The CNSVS cognition battery is a well-validated, sensitive measure and included the following tests: verbal and visual memory (VBM and VIM) tests, finger-tapping test, symbol digit coding test, Stroop test, shifting attention test, the nonverbal reasoning test, and the 4-part continuous performance test (Gualtieri and Johnson [2006]). Standardized domain scores for cognitive flexibility, composite memory, executive functioning, processing speed, psychomotor speed, reaction time, reasoning, sustained attention, verbal memory, visual memory, and working memory were reported. In all domains, a decrease in the standardized domain score is indicative of impairment.
All statistical analyses were generated using SAS Version 9.2 (SAS, Cary, NC, USA). The PK parameters were derived using non-compartmental methods with WinNonlin Enterprise Version 6.3 (Pharsight Corp., Mountain View, CA, USA). Frequency or descriptive statistics were used for summary of data. Where indicated, percent coefficient of variation was included in the summary of continuous data. All statistical tests were 2-tailed at α = 0.05 level for significance unless otherwise stated. A power model was used to evaluate dose proportionality by race for fasted subjects; in the event of no observed race effect, dose proportionality was assessed for all subjects. To evaluate the food effect, a paired t test was performed on T max and natural log-transformed C max, and AUCs. An ANCOVA model with baseline scores and race as covariates was used to assess the effects of TAK-063 on CNSVS domain scores.

Compound: COc1cn(-c2ccc(-n3cccn3)cc2F)nc(-c2ccnn2-c2ccccc2)c1=O [TAK-063]
- Cognitive flexibility domain score, Difference (TAK-063 LS mean - placebo LS mean, change from baseline) (3 mg): 2.9
- Composite memory domain score, Difference (TAK-063 LS mean - placebo LS mean, change from baseline) (3 mg): -1.4
- Executive functioning domain score, Difference (TAK-063 LS mean - placebo LS mean, change from baseline) (3 mg): 2.9
- Processing speed domain score, Difference (TAK-063 LS mean - placebo LS mean, change from baseline) (3 mg): 2.5
- Psychomotor speed domain score, Difference (TAK-063 LS mean - placebo LS mean, change from baseline) (3 mg): -1.8
- Reaction time domain score, Difference (TAK-063 LS mean - placebo LS mean, change from baseline) (3 mg): 1.5
- Reasoning domain score, Difference (TAK-063 LS mean - placebo LS mean, change from baseline) (3 mg): 6.9
- Sustained attention domain score, Difference (TAK-063 LS mean - placebo LS mean, change from baseline) (3 mg): 15.0
- Verbal memory domain score, Difference (TAK-063 LS mean - placebo LS mean, change from baseline) (3 mg): -4.8
- Visual memory domain score, Difference (TAK-063 LS mean - placebo LS mean, change from baseline) (3 mg): 4.5
- Working memory domain score, Difference (TAK-063 LS mean - placebo LS mean, change from baseline) (3 mg): 9.9
- Cognitive flexibility domain score, Difference (TAK-063 LS mean - placebo LS mean, change from baseline) (10 mg): -10.0
- Composite memory domain score, Difference (TAK-063 LS mean - placebo LS mean, change from baseline) (10 mg): -1.9
- Executive functioning domain score, Difference (TAK-063 LS mean - placebo LS mean, change from baseline) (10 mg): -10.0
- Processing speed domain score, Difference (TAK-063 LS mean - placebo LS mean, change from baseline) (10 mg): 0.2
- Psychomotor speed domain score, Difference (TAK-063 LS mean - placebo LS mean, change from baseline) (10 mg): -9.6
- Reaction time domain score, Difference (TAK-063 LS mean - placebo LS mean, change from baseline) (10 mg): -5.6
- Reasoning domain score, Difference (TAK-063 LS mean - placebo LS mean, change from baseline) (10 mg): 2.2
- Sustained attention domain score, Difference (TAK-063 LS mean - placebo LS mean, change from baseline) (10 mg): 3.6
- Verbal memory domain score, Difference (TAK-063 LS mean - placebo LS mean, change from baseline) (10 mg): 2.9
- Visual memory domain score, Difference (TAK-063 LS mean - placebo LS mean, change from baseline) (10 mg): -4.4
- Working memory domain score, Difference (TAK-063 LS mean - placebo LS mean, change from baseline) (10 mg): 2.3
- Cognitive flexibility domain score, Difference (TAK-063 LS mean - placebo LS mean, change from baseline) (30 mg): -1.9
- Composite memory domain score, Difference (TAK-063 LS mean - placebo LS mean, change from baseline) (30 mg): 7.5
- Executive functioning domain score, Difference (TAK-063 LS mean - placebo LS mean, change from baseline) (30 mg): -1.2
- Processing speed domain score, Difference (TAK-063 LS mean - placebo LS mean, change from baseline) (30 mg): 2.2
- Psychomotor speed domain score, Difference (TAK-063 LS mean - placebo LS mean, change from baseline) (30 mg): -3.7
- Reaction time domain score, Difference (TAK-063 LS mean - placebo LS mean, change from baseline) (30 mg): -2.8
- Reasoning domain score, Difference (TAK-063 LS mean - placebo LS mean, change from baseline) (30 mg): -0.6
- Sustained attention domain score, Difference (TAK-063 LS mean - placebo LS mean, change from baseline) (30 mg): 2.5
- Verbal memory domain score, Difference (TAK-063 LS mean - placebo LS mean, change from baseline) (30 mg): 3.8
- Visual memory domain score, Difference (TAK-063 LS mean - placebo LS mean, change from baseline) (30 mg): 8.3
- Working memory domain score, Difference (TAK-063 LS mean - placebo LS mean, change from baseline) (30 mg): -2.2
- Cognitive flexibility domain score, Difference (TAK-063 LS mean - placebo LS mean, change from baseline) (100 mg): -5.6
- Composite memory domain score, Difference (TAK-063 LS mean - placebo LS mean, change from baseline) (100 mg): -13.5
- Executive functioning domain score, Difference (TAK-063 LS mean - placebo LS mean, change from baseline) (100 mg): -2.2
- Processing speed domain score, Difference (TAK-063 LS mean - placebo LS mean, change from baseline) (100 mg): -4.7
- Psychomotor speed domain score, Difference (TAK-063 LS mean - placebo LS mean, change from baseline) (100 mg): -11.4
- Reaction time domain score, Difference (TAK-063 LS mean - placebo LS mean, change from baseline) (100 mg): -3.4
- Reasoning domain score, Difference (TAK-063 LS mean - placebo LS mean, change from baseline) (100 mg): 2.0
- Sustained attention domain score, Difference (TAK-063 LS mean - placebo LS mean, change from baseline) (100 mg): -0.1
- Verbal memory domain score, Difference (TAK-063 LS mean - placebo LS mean, change from baseline) (100 mg): -12.0
- Visual memory domain score, Difference (TAK-063 LS mean - placebo LS mean, change from baseline) (100 mg): -8.3
- Working memory domain score, Difference (TAK-063 LS mean - placebo LS mean, change from baseline) (100 mg): -6.2
- Cognitive flexibility domain score, Difference (TAK-063 LS mean - placebo LS mean, change from baseline) (300 mg): -28.4
- Composite memory domain score, Difference (TAK-063 LS mean - placebo LS mean, change from baseline) (300 mg): -19.6
- Executive functioning domain score, Difference (TAK-063 LS mean - placebo LS mean, change from baseline) (300 mg): -26.4
- Processing speed domain score, Difference (TAK-063 LS mean - placebo LS mean, change from baseline) (300 mg): -1.5
- Psychomotor speed domain score, Difference (TAK-063 LS mean - placebo LS mean, change from baseline) (300 mg): -11.1
- Reaction time domain score, Difference (TAK-063 LS mean - placebo LS mean, change from baseline) (300 mg): -4.1
- Reasoning domain score, Difference (TAK-063 LS mean - placebo LS mean, change from baseline) (300 mg): -2.0
- Sustained attention domain score, Difference (TAK-063 LS mean - placebo LS mean, change from baseline) (300 mg): -8.1
- Verbal memory domain score, Difference (TAK-063 LS mean - placebo LS mean, change from baseline) (300 mg): -17.3
- Visual memory domain score, Difference (TAK-063 LS mean - placebo LS mean, change from baseline) (300 mg): -14.0
- Working memory domain score, Difference (TAK-063 LS mean - placebo LS mean, change from baseline) (300 mg): -1.4
- Cognitive flexibility domain score, Difference (TAK-063 LS mean - placebo LS mean, change from baseline) (1000 mg): -15.6
- Composite memory domain score, Difference (TAK-063 LS mean - placebo LS mean, change from baseline) (1000 mg): -8.6
- Executive functioning domain score, Difference (TAK-063 LS mean - placebo LS mean, change from baseline) (1000 mg): -14.1
- Processing speed domain score, Difference (TAK-063 LS mean - placebo LS mean, change from baseline) (1000 mg): -19.7
- Psychomotor speed domain score, Difference (TAK-063 LS mean - placebo LS mean, change from baseline) (1000 mg): -22.7
- Reaction time domain score, Difference (TAK-063 LS mean - placebo LS mean, change from baseline) (1000 mg): -16.5
- Reasoning domain score, Difference (TAK-063 LS mean - placebo LS mean, change from baseline) (1000 mg): -0.1
- Sustained attention domain score, Difference (TAK-063 LS mean - placebo LS mean, change from baseline) (1000 mg): 0.7
- Verbal memory domain score, Difference (TAK-063 LS mean - placebo LS mean, change from baseline) (1000 mg): -5.8
- Visual memory domain score, Difference (TAK-063 LS mean - placebo LS mean, change from baseline) (1000 mg): -6.0
- Working memory domain score, Difference (TAK-063 LS mean - placebo LS mean, change from baseline) (1000 mg): -2.7
- Single dose causing impairments in cognitive flexibility, executive functioning, processing and psychomotor speed, and visual memory (single dose, CNSVS): ≥ 100 mg
